Assay results: patent publication US9981940B2, “Aryl sulfide derivatives and aryl sulfoxide derivatives as acaricides and insecticides” (BAYER CROPSCIENCE AKTIENGESELLSCHAFT, priority 2013, dated 2018)

Key:
[1] = log P by HPLC (OECD Guideline 117), method [b] neutral range; format: physicochemical; conditions: HPLC; for logP[b]: method [b] neutral range; for chromatographic logP: reversed-phase C18 HPLC column, neutral range, pH 7.8
Experimental: (§1) The log P values were determined analogously to OECD Guideline 117 (EC Directive 92/69/EEC) by HPLC (high-performance liquid chromatography) using reversed-phase columns (C 18), by the following methods:
[b] The LC-MS determination in the neutral range is effected at pH 7.8 with 0.001 molar aqueous ammonium hydrogencarbonate solution and acetonitrile as eluents; linear gradient from 10% acetonitrile to 95% acetonitrile.

[2] = tested on: Tetranychus urticae; test: Tetranychus urticae spray test, OP-resistant (TETRUR); format: in vivo; conditions: application rate of 500 g/ha; after 6 days
Experimental: Tetranychus urticae—Spray Test, OP-Resistant (TETRUR)
• Solvent: 78.0 parts by weight of acetone • 1.5 parts by weight of dimethylformamide • Emulsifier: 0.5 part by weight of alkylaryl polyglycol ether
To produce an appropriate active ingredient formulation, 1 part by weight of active ingredient is mixed with the specified amounts of solvent and emulsifier, and the concentrate is diluted to the desired concentration with emulsifier-containing water.
Discs of bean leaves (Phaseolus vulgaris) infested by all stages of the greenhouse red spider mite (Tetranychus urticae) are sprayed with an active ingredient formulation of the desired concentration.
After 6 days, the efficacy in % is determined 100% means that all the spider mites have been killed; 0% means that none of the spider mites have been killed.

[3] = log P by HPLC (OECD Guideline 117), method [a] acidic range; format: physicochemical; conditions: for logP[a]: HPLC, method [a] acidic range; for chromatographic logP: reversed-phase C18 HPLC column, acidic range
Experimental: as §1
[a] The LC-MS determination in the acidic range is effected at pH 2.7 with 0.1% aqueous formic acid and acetonitrile (contains 0.1% formic acid) as eluents; linear gradient from 10% acetonitrile to 95% acetonitrile.

[4] = pH 2.7, HPLC, pH 2.7, read-out: log P[a]

Row | SMILES | logP[b] [1] | logP[a] [3] | chromatographic logP [1] | chromatographic logP [3, 4] | chromatographic logP ([3]; pH 2.7, HPLC method [a], read-out: logP[a]) | efficacy [2] [%]
1 | Cc1cc(F)c(N2C(=O)C(Cl)=C(Cl)C2=O)cc1SCC(F)(F)F [Example 338] | 4.00 | 3.99 | – | – | – | 90
2 | Cc1cc(F)c(-n2nc(SCC(F)F)n(C)c2=O)cc1[S+]([O-])CC(F)(F)F (racemic) [Example 289] | 3.25 | 3.30 | – | – | – | 100
3 | Cc1cc(F)c(-n2nc(SC(F)(F)F)n(C3CC3)c2=O)cc1[S+]([O-])CC(F)(F)F (centres unmarked) [Example 264] | 2.98 | 3.05 | – | – | – | 100
4 | Cc1cc(F)c(-n2nc(OC(C)(C)C)n(C)c2=O)cc1[S+]([O-])CC(F)(F)F (centres unmarked) [Example 184] | 2.76 | 2.82 | – | – | – | 100
5 | COc1nn(-c2ccc(C(F)(F)F)c([S+]([O-])CC(F)(F)F)c2)c(=O)n1C1CC1 (centres unmarked) [Example 147] | 3.19 | 3.27 | – | – | – | –
6 | Cc1cc(C)c([S+]([O-])CC(F)(F)F)cc1-n1nnn(C)c1=O (racemic) [Example 297] | 1.96 | 1.96 | – | – | – | –
7 | Cc1ccc(-n2nc(OC(C)C)n(C)c2=O)cc1[S+]([O-])CC(F)(F)F (centres unmarked) [Example 163] | 2.80 | 2.87 | – | – | – | –
8 | CCc1nn(-c2cc([S+]([O-])CC(F)(F)F)c(C)cc2F)c(=O)n1-c1cccnc1 (racemic) [Example 354] | 1.97 | 1.98 | – | – | – | –
9 | COc1nn(-c2cc([S+]([O-])CC(F)(F)F)c(Br)cc2F)c(=O)n1C (centres unmarked) [Example 174] | 2.15 | 2.21 | – | – | – | –
10 | CCn1c(OC)nn(-c2cc([S+]([O-])CC(F)(F)F)c(C)cc2F)c1=O (centres unmarked) [Example 181] | 2.07 | 2.11 | – | – | – | –
11 | N#Cc1cc(F)c(-n2nc(C(F)(F)F)n(C3CC3)c2=O)cc1[S+]([O-])CC(F)(F)F (centres unmarked) [Example 47, 4-[4-Cyclopropyl-5-oxo-3-(trifluoromethyl)-4,5-dihydro-1H-1,2,4-triazol-1-yl]-5-fluoro-2-[(2,2,2-trifluoroethyl)sulphinyl]benzonitrile] | – | – | 2.84 | 2.92 | 2.92 | –
12 | Cc1cc(C)c(-n2ncn(Cc3ccccc3)c2=O)cc1SCC(F)(F)F [Example 373] | 3.47 | 3.55 | – | – | – | –
13 | COc1ccc(-n2nc(C(F)(F)F)n(C3CC3)c2=O)cc1[S+]([O-])CC(F)(F)F (centres unmarked) [Example 53] | 2.93 | 3.03 | – | – | – | –

Further lines, with some results ahead:

Row | logP[b] [1] | logP[a] [3] | chromatographic logP [1] | chromatographic logP [3, 4] | chromatographic logP ([3]; pH 2.7, HPLC method [a], read-out: logP[a]) | SMILES | efficacy [2] [%]
14 | 3.46 | 3.53 | – | – | – | CCCn1c(OC)nn(-c2cc(SCC(F)(F)F)c(C)cc2F)c1=O [Example 389] | 90
15 | 2.81 | 2.86 | – | – | – | CCCOc1nn(-c2cc([S+]([O-])CC(F)(F)F)c(C)cc2F)c(=O)n1CC (centres unmarked) [Example 408] | 100
16 | 3.46 | 3.53 | – | – | – | CCc1nn(-c2cc(SCC(F)(F)F)c(C)cc2F)c(=O)o1 [Example 455] | 100
17 | 4.29 | 4.37 | – | – | – | CCCSc1nn(-c2cc(SCC(F)(F)F)c(C)cc2F)c(=O)n1CC [Example 426] | –
18 | – | – | 3.12 | 3.15 | – | Nc1cc(SCC(F)(F)F)c(Br)cc1F [IVa-14, 4-Bromo-2-fluoro-5-[(2,2,2-trifluoroethyl)sulphanyl]aniline] | –
19 | – | – | 3.26 | 3.32 | – | N#Cc1cc(F)c(Br)cc1SCC(F)(F)F [VIIa-18, 4-Bromo-5-fluoro-2-[(2,2,2-trifluoroethyl)sulphanyl]benzonitrile] | –
20 | 3.72 | 3.75 | – | – | – | Cc1cc(F)c(-n2nnn(-c3ccc(C(F)(F)F)cc3)c2=O)cc1[S+]([O-])CC(F)(F)F (racemic) [Example 445] | –
21 | – | – | 2.3 | 2.34 | – | Cc1cc(F)c(NC(=S)NCC(F)(F)F)cc1[S+]([O-])CC(F)(F)F (centres unmarked) [IIb-1, 1-{2-Fluoro-4-methyl-5-[(2,2,2-trifluoroethyl)sulphinyl]phenyl}-3-(2,2,2-trifluoroethyl)thiourea] | –
